Data as given in US20250145633A1, “SUBSTITUTED FURANOPYRIMIDINE COMPOUNDS AS PDE1 INHIBITORS” (Dart NeuroScience, LLC, priority 2017, published 2025).

Target: human PDE1B enzyme (Homo sapiens (Human), UniProt Q01064)
Experiment: IMAP TR-FRET PDE1B enzymatic assay
Assay type: biochemical
Conditions: negative log of half-maximal molar inhibitory concentration, 200 nM FAM-cAMP, values given as bins; for IC50: read-out: PDE1b (pIC50) (converted)
Procedure, shortened: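 Full-length GST-tagged human PDE1B (250 pg/well) in IMAP BSA buffer with 10 U/ml calmodulin and 2.5 mM CaCl2; compound pre-incubated 5 min at room temperature, then 200 nM (final) FAM-cAMP for 30 min. IMAP binding reagent/Tb added, 1 h; TR-FRET 520/490 ratio read. IC50 from sigmoidal dose-response fit.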

SMILES	IC50 [nM]	PDE1b (pIC50)
CNc1ncnc2c1CCN(C(=O)c1c(C)oc3ncnc(NC4(C)CC4)c13)C2 [Example 792, 6-Methyl-5-[4-(methylamino)-5H,6H,7H,8H-pyrido[3,4-d]pyrimidine-7-carbonyl]-N-(1-methylcyclopropyl)furo[2,3-d]pyrimidin-4-amine]	10 to 100	–
Cc1oc2ncnc(NC3(C)CC3)c2c1C(=O)N1CCc2c(ncnc2N(C)C2CCOCC2)C1 [Example 793, 6-Methyl-5-{4-[methyl(oxan-4-yl)amino]-5H,6H,7H,8H-pyrido[3,4-d]pyrimidine-7-carbonyl}-N-(1-methylcyclopropyl)furo[2,3-d]pyrimidin-4-amine]	10 to 100	–
Cc1oc2ncnc(NC3(C)CC3)c2c1C(=O)N1CCc2c(ncnc2NC2CCOCC2)C1 [Example 794, 6-Methyl-N-(1-methylcyclopropyl)-5-f{4-[(oxan-4-yl)amino]-5H,6H,7H,8H-pyrido[3,4-d]pyrimidine-7-carbonyl}furo[2,3-d]pyrimidin-4-amine]	10 to 100	–
COCC1(Nc2ncnc3c2CCN(C(=O)c2c(C)oc4ncnc(NC5(C)CC5)c24)C3)CC1 [Example 795, 5-(4-{[1-(Methoxymethyl)cyclopropyl]amino}-5H,6H,7H,8H-pyrido[3,4-d]pyrimidine-7-carbonyl)-6-methyl-N-(1-methylcyclopropyl)furo[2,3-d]pyrimidin-4-amine]	10 to 100	–
Cc1oc2ncnc(NC3(C)CC3)c2c1C(=O)N1CCc2c(ncnc2NC2(C)CC2)C1 [Example 796, 6-Methyl-N-(1-methylcyclopropyl)-5-{4-[(1-methylcyclopropyl)amino]-5H,6H,7H,8H-pyrido[3,4-d]pyrimidine-7-carbonyl}furo[2,3-d]pyrimidin-4-amine]	10 to 100	–
Cc1oc2ncnc(NC3(C)CC3)c2c1C(=O)N1CCC(c2ccc(OCCF)cc2)C1 (centres unmarked) [Example 797, 5-{3-[4-(2-Fluoroethoxy)phenyl]pyrrolidine-1-carbonyl}-6-methyl-N-(1-methylcyclopropyl)furo[2,3-d]pyrimidin-4-amine]	10 to 100	–
Cc1cc(F)nc(C2CCN(C(=O)c3c(C)oc4ncnc(NC5(C)CC5)c34)C2)c1 (centres unmarked) [Example 798, 5-[3-(6-Fluoro-4-methylpyridin-2-yl)pyrrolidine-1-carbonyl]-6-methyl-N-(1-methylcyclopropyl)furo[2,3-d]pyrimidin-4-amine]	–	>8
Cc1nc(C2CCN(C(=O)c3c(C)oc4ncnc(NC5(C)CC5)c34)C2)ccc1F (centres unmarked) [Example 799, 5-[3-(5-Fluoro-6-methylpyridin-2-yl)pyrrolidine-1-carbonyl]-6-methyl-N-(1-methylcyclopropyl)furo[2,3-d]pyrimidin-4-amine]	–	>8
Cc1nc(C2CCN(C(=O)c3c(C)oc4ncnc(NC5(C)CC5)c34)C2)ncc1F (centres unmarked) [Example 800, 5-[3-(5-Fluoro-4-methylpyrimidin-2-yl)pyrrolidine-1-carbonyl]-6-methyl-N-(1-methylcyclopropyl)furo[2,3-d]pyrimidin-4-amine]	–	>8
Cc1oc2ncnc(NC3(C)CC3)c2c1C(=O)N1CCC(c2cccc(C(F)(F)F)n2)C1 (centres unmarked) [Example 801, 6-Methyl-N-(1-methylcyclopropyl)-5-f{3-[6-(trifluoromethyl)pyridin-2-yl]pyrrolidine-1-carbonyl}furo[2,3-d]pyrimidin-4-amine]	–	>8
Cc1oc2ncnc(NC3(C)CC3)c2c1C(=O)N1CCC(c2cc(C(F)(F)F)ccn2)C1 (centres unmarked) [Example 802, 6-Methyl-N-(1-methylcyclopropyl)-5-f{3-[4-(trifluoromethyl)pyridin-2-yl]pyrrolidine-1-carbonyl}furo[2,3-d]pyrimidin-4-amine]	–	>8
Cc1oc2ncnc(NC3(C)CC3)c2c1C(=O)N1CCc2c(ncnc2C2CCOCC2)C1 [Example 803, 6-Methyl-N-(1-methylcyclopropyl)-5-[4-(oxan-4-yl)-5H,6H,7H,8H-pyrido[3,4-d]pyrimidine-7-carbonyl]furo[2,3-d]pyrimidin-4-amine]	10 to 100	–
C=C(C)c1ncnc2c1CCN(C(=O)c1c(C)oc3ncnc(NC4(C)CC4)c13)C2 [Example 804, 6-Methyl-N-(1-methylcyclopropyl)-5-[4-(prop-1-en-2-yl)-5H,6H,7H,8H-pyrido[3,4-d]pyrimidine-7-carbonyl]furo[2,3-d]pyrimidin-4-amine]	10 to 100	–
Cc1oc2ncnc(NC3(C)CC3)c2c1C(=O)N1CCc2c(ncnc2C2CC2)C1 [Example 805, 5-{4-Cyclopropyl-5H,6H,7H,8H-pyrido[3,4-d]pyrimidine-7-carbonyl}-6-methyl-N-(1-methylcyclopropyl)furo[2,3-d]pyrimidin-4-amine]	10 to 100	–
CCCOc1ncnc2c1CCN(C(=O)c1c(C)oc3ncnc(NC4(C)CC4)c13)C2 [Example 806, 6-Methyl-N-(1-methylcyclopropyl)-5-f{4-propoxy-5H,6H,7H,8H-pyrido[3,4-d]pyrimidine-7-carbonyl}furo[2,3-d]pyrimidin-4-amine]	10 to 100	–
Cc1oc2ncnc(NC3(C)CC3)c2c1C(=O)N1CCc2c(ncnc2OCC(C)C)C1 [Example 807, 6-Methyl-N-(1-methylcyclopropyl)-5-[4-(2-methylpropoxy)-5H,6H,7H,8H-pyrido[3,4-d]pyrimidine-7-carbonyl]furo[2,3-d]pyrimidin-4-amine]	–	>8
Cc1oc2ncnc(NC3(C)CC3)c2c1C(=O)N1CCc2c(ncnc2OCC2CC2)C1 [Example 808, 5-[4-(Cyclopropylmethoxy)-5H,6H,7H,8H-pyrido[3,4-d]pyrimidine-7-carbonyl]-6-methyl-N-(1-methylcyclopropyl)furo[2,3-d]pyrimidin-4-amine]	–	>8
COCCOc1ncnc2c1CCN(C(=O)c1c(C)oc3ncnc(NC4(C)CC4)c13)C2 [Example 809, 5-[4-(2-Methoxyethoxy)-5H,6H,7H,8H-pyrido[3,4-d]pyrimidine-7-carbonyl]-6-methyl-N-(1-methylcyclopropyl)furo[2,3-d]pyrimidin-4-amine]	10 to 100	–
Cc1oc2ncnc(NC3(C)CC3)c2c1C(=O)N1CCc2c(ncnc2OC2CCC2)C1 [Example 810, 5-{4-Cyclobutoxy-5H,6H,7H,8H-pyrido[3,4-d]pyrimidine-7-carbonyl}-6-methyl-N-(1-methylcyclopropyl)furo[2,3-d]pyrimidin-4-amine]	–	>8
Cc1oc2ncnc(NC3(C)CC3)c2c1C(=O)N1CCc2c(ncnc2OC2CC2)C1 [Example 811, 5-{4-Cyclopropoxy-5H,6H,7H,8H-pyrido[3,4-d]pyrimidine-7-carbonyl}-6-methyl-N-(1-methylcyclopropyl)furo[2,3-d]pyrimidin-4-amine]	10 to 100	–
COc1nc(C2CC2)nc2c1CCN(C(=O)c1c(C)oc3ncnc(NC4(C)CC4)c13)C2 [Example 812, 5-{2-Cyclopropyl-4-methoxy-5H,6H,7H,8H-pyrido[3,4-d]pyrimidine-7-carbonyl}-6-methyl-N-(1-methylcyclopropyl)furo[2,3-d]pyrimidin-4-amine]	–	>8
CCN(Cc1cc(OC)ncn1)C(=O)c1c(C)oc2ncnc(NC3(C)CC3)c12 [Example 813, N-Ethyl-N-[(6-methoxypyrimidin-4-yl)methyl]-6-methyl-4-[(1-methylcyclopropyl)amino]furo[2,3-d]pyrimidine-5-carboxamide]	100 to 1000	–
Cc1nc(C)n2c1CN(C(=O)c1c(C)oc3ncnc(NC4(C)CC4)c13)CC2 [Example 814, 5-{1,3-Dimethyl-5H,6H,7H,8H-imidazo[1,5-a]pyrazine-7-carbonyl}-6-methyl-N-(1-methylcyclopropyl)furo[2,3-d]pyrimidin-4-amine]	100 to 1000	–
